In patent EP4775208A1, “USE OF PRMT5 INHIBITOR IN TREATMENT OF TUMORS OR CANCERS” (Apeiron Therapeutics (Hong Kong) Ltd., priority 2023, dated 2025):

Tested on: Human glioma U87-luc cells
Assay: In vivo efficacy in U87 orthotopic xenograft model (bioluminescence imaging)
Parameters: species or system BALB/c nude mice
Conditions: for Bioluminescence Signal (photons/sec), Mean: 30 mg/kg, PO, QD, U87-luc orthotopic
Procedure: V. In Vivo Efficacy of Compounds of the Present Disclosure in U87 Orthotopic Xenograft Models
Cell Culture: Human glioma U87-luc cells (Caliper-124577) were cultured as monolayers in vitro. The cells were maintained in EMEM supplemented with 10% fetal bovine serum (FBS), 100 U/mL penicillin, and 100 µg/mL streptomycin in an incubator at 37°C with 5% CO2. Routine subculturing was performed twice weekly using trypsin-EDTA. When the cells reached 80-90% confluence and the required cell number was achieved, the cells were harvested, counted, and prepared for inoculation.
Animals: Female BALB/c nude mice, weighing 18-20 g. A total of 50 mice were obtained (target study size of 24 mice, with an […]). The animals were provided by Beijing Vital River Laboratory Animal Technology Co., Ltd.
Tumor Inoculation: Prior to cell inoculation, each nude mouse was anesthetized via intraperitoneal injection of 1.25% avertin at a dose of 20 µL/g. The anesthetized mouse was fixed onto a stereotaxic instrument. The scalp was disinfected with 70% ethanol and covered with a sterile drape. A midline longitudinal incision (approximately 1 cm) was made to expose the skull. A small hole was drilled using a cranial drill at the coordinates 2 mm right and 0.5 mm anterior to the bregma. Using a microsyringe, 3 µL of U87-luc cell suspension (3.0×10^5 cells in PBS containing 20% Matrigel) was injected into the hole at a depth of 3.5 mm from the skull surface. The burr hole was sealed with tissue adhesive (or bone wax), the incision was sutured, and the skin was disinfected with povidone-iodine solution. The animals were kept warm on a heating pad during the recovery period and monitored until fully awake before being returned to their cages.
Analgesia: For analgesia, Meloxicam (3 mg/kg) was injected subcutaneously 30 minutes prior to surgery and 24 hours post-surgery.
Bioluminescence Imaging: Mice were weighed and administered D-luciferin (150 mg/kg) via intraperitoneal injection. Ten minutes post-injection, the mice were anesthetized using a mixture of oxygen and isoflurane. Once fully anesthetized, the animals were transferred to the IVIS Lumina III in vivo imaging system for detection. Bioluminescence measurements were acquired for all mice at 13 minutes post-injection. Whole-body bioluminescence, including metastatic tumors, was measured and images were captured. Imaging was performed on Day 7 post-inoculation and weekly thereafter following grouping and dosing (5 time points in total). The data are presented as bioluminescence signal values.
Animal Grouping: Seven days after cell inoculation, 24 mice were selected from the total of 50 mice based on their bioluminescence values. Using an Excel-based stratified randomization procedure, the mice were divided into 3 groups (8 mice per group): the Vehicle group, the 15 mg/kg BID group, and the 30 mg/kg QD group.
Experimental Endpoint: The experimental endpoint is animal survival.
Monitoring and Data Analysis: Animals were monitored daily, and the time of death was recorded. […] If an animal's health deteriorated or it became moribund (characterized by significant weight loss >20%, inability to eat or drink normally, difficulty moving, or paralysis), it was considered a mortality event and immediately euthanized via CO2 inhalation.
The Median Survival Time (MST, days) was calculated for each group. The Increase in Life-Span (ILS) was calculated by comparing the MST of the treatment group to that of the model control group, expressed as a percentage increase over the control group. The calculation is as follows: ILS(%) = (MSTt−MSTv)/MSTv × 100 [formula] Where: • MSTt: Median Survival Time of the treatment group • MSTv: Median Survival Time of the Vehicle group
Tumor Growth Monitoring: Bioluminescence signal intensity was used to monitor intracranial tumor growth. Bioluminescence imaging was performed once or twice weekly. […]

## CN(C(=O)c1ccc2nc(N)c3cncn3c2c1)[C@@H]1COc2cc(C(F)(F)F)ccc21 [Example 107, (S)-4-amino-N-methy 1-N-(6-(trifluoromethy 1)-2,3-dihydrobenzofuran-3-yl)imidazo[1,5-a]quinoxaline-8-carboxamide]
30 mg/kg once daily (QD) for 28 days, U87MG orthotopic mouse xenograft
  Tumor Growth Inhibition (TGI) rate: exceeding 100%
Day 0
  Bioluminescence Signal (photons/sec), Mean: 5.837E+06 photons/sec
Day 7
  Bioluminescence Signal (photons/sec), Mean: 1.419E+06 photons/sec
Day 14
  Bioluminescence Signal (photons/sec), Mean: 1.930E+06 photons/sec
Day 21
  Bioluminescence Signal (photons/sec), Mean: 1.968E+06 photons/sec
Day 28
  Bioluminescence Signal (photons/sec), Mean: 2.412E+06 photons/sec
